Values quoted from earlier work, collected in patent US20240041944A1, “OPTIMIZED INDIVIDUALIZED PREBIOTIC COMPOSITIONS” (ISOThrive LLC, priority 2016, published 2024).
Entries after “also recorded” stand apart in the source; their conditions may differ. Ends that are not written are not given here.

B1: Pyocin S2: class III bacteriocin produced by P. aeruginosa 42A (protein, UniProt Q06584 2-689, looked up)
Pyocin-S2: AVNDYEPGSMVITHVQGGGRDIIQYIPARSSYGTPPFVPPGPSPYVGTGMQEYRKLRSTLDKSHSELKKNLKNETLKEVDELKSEAGLPGKAVSANDIRDEKSIVDALMDAKAKSLKAIEDRPANLYTASDFPQKSESMYQSQLLASRKFYGEFLDRHMSELAKAYSADIYKAQIAILKQTSQELENKARSLEAEAQRAAAEVEADYKARKANVEKKVQSELDQAGNALPQLTNPTPEQWLERATQLVTQAIANKKKLQTANNALIAKAPNALEKQKATYNADLLVDEIASLQARLDKLNAETARRKEIARQAAIRAANTYAMPANGSVVATAAGRGLIQVAQGAASLAQAISDAIAVLGRVLASAPSVMAVGFASLTYSSRTAEQWQDQTPDSVRYALGMDAAKLGLPPSVNLNAVAKASGTVDLPMRLTNEARGNTTTLSVVSTDGVSVPKAVPVRMAAYNATTGLYEVTVPSTTAEAPPLILTWTPASPPGNQNPSSTTPVVPKPVPVYEGATLTPVKATPETYPGVITLPEDLIIGFPADSGIKPIYVMFRDPRDVPGAATGKGQPVSGNWLGAASQGEGAPIPSQIADKLRGKTFKNWRDFREQFWIAVANDPELSKQFNPGSLAVMRDGGAPYVRESEQAGGRIKIEIHHKVRIADGGGVYNMGNLVAVTPKRHIEIHKGGK
B2: Colicin E1: class III bacteriocin produced by E. coli (protein, UniProt P02978 1-522, looked up)
Colicin-E1: METAVAYYKDGVPYDDKGQVIITLLNGTPDGSGSGGGGGKGGSKSESSAAIHATAKWSTAQLKKTQAEQAARAKAAAEAQAKAKANRDALTQRLKDIVNEALRHNASRTPSATELAHANNAAMQAEDERLRLAKAEEKARKEAEAAEKAFQEAEQRRKEIEREKAETERQLKLAEAEEKRLAALSEEAKAVEIAQKKLSAAQSEVVKMDGEIKTLNSRLSSSIHARDAEMKTLAGKRNELAQASAKYKELDELVKKLSPRANDPLQNRPFFEATRRRVGAGKIREEKQKQVTASETRINRINADITQIQKAISQVSNNRNAGIARVHEAEENLKKAQNNLLNSQIKDAVDATVSFYQTLTEKYGEKYSKMAQELADKSKGKKIGNVNEALAAFEKYKDVLNKKFSKADRDAIFNALASVKYDDWAKHLDQFAKYLKITGHVSFGYDVVSDILKIKDTGDWKPLFLTLEKKAADAGVSYVVALLFSLLAGTTLGIWGIAIVTGILCSYIDKNKLNTINEVLGI
B3: Microcin E492: class IIa bacteriocin produced by K. pneumoniae (protein, UniProt Q9Z4N4 16-99, looked up)
Microcin E492: GETDPNTQLLNDLGNNMAWGAALGAPGGLGSAALGAAGGALQTVGQGLIDHGPVNVPIPVLIGPSWNGSGSGYNSATSSSGSGS
B4: Colicin E3: class III bacteriocin produced by E. coli (protein, UniProt P00646 1-551, looked up)
Colicin E3: MSGGDGRGHNTGAHSTSGNINGGPTGLGVGGGASDGSGWSSENNPWGGGSGSGIHWGGGSGHGNGGGNGNSGGGSGTGGNLSAVAAPVAFGFPALSTPGAGGLAVSISAGALSAAIADIMAALKGPFKFGLWGVALYGVLPSQIAKDDPNMMSKIVTSLPADDITESPVSSLPLDKATVNVNVRVVDDVKDERQNISVVSGVPMSVPVVDAKPTERPGVFTASIPGAPVLNISVNNSTPAVQTLSPGVTNNTDKDVRPAGFTQGGNTRDAVIRFPKDSGHNAVYVSVSDVLSPDQVKQRQDEENRRQQEWDATHPVEAAERNYERARAELNQANEDVARNQERQAKAVQVYNSRKSELDAANKTLADAIAEIKQFNRFAHDPMAGGHRMWQMAGLKAQRAQTDVNNKQAAFDAAAKEKSDADAALSSAMESRKKKEDKKRSAENNLNDEKNKPRKGFKDYGHDYHPAPKTENIKGLGDLKPGIPKTPKQNGGGKRKRWTGDKGRKIYEWDSQHGELEGYRASDGQHLGSFDPKTGNQLKGPDPKRNIKKYL

Assays:
Caenorhabditis elegans = settings: incubation with rifamycin
[1] = system: Bacillus, Clostridium, Staphylococcus, Streptococcus, and Listeria spp.
Salmonella spp. = settings: co-administered with EDTA
[2] = can be autoclaved at 115° C.
head/neck tumors = settings: head and neck, mice

Row | Molecule | Cancer Cell Type affected (cancer cell lines) | also measured
1 | CO[C@H]1/C=C/O[C@@]2(C)Oc3c(C)c(O)c4c(O)c(cc(O)c4c3C2=O)NC(=O)/C(C)=C\C=C\[C@H](C)[C@H](O)[C@@H](C)[C@@H](O)[C@@H](C)[C@H](OC(C)=O)[C@@H]1C [rifamycin] |  | increase of lifespan (Caenorhabditis elegans): up to 60%; cytotoxicity (ascites tumors): cytotoxic
2 | Bovicin HC5 | MCF7 (breast cancer),; also recorded: HepG2 (liver cancer) | 
3 | Nisin: lantibiotic bacteriocin produced by Lactococcus lactis, 34-residue peptide (SEQ ID NO:2) (ITSISLCTPGCKTGALMGCNMKTATCNCSIHVSK; cysteine pairing not given here; also: lanthionine modifications; listed as Lactococcus lactis) | MCF7 (breast cancer),; also recorded: HepG2 (liver cancer) | antimicrobial activity [1]: active; activity against gram negative organisms (Salmonella spp.): effective; thermal stability [2]: thermally stable; effect on tumorigenesis / tumors (head/neck tumors): reduce tumorigenesis
4 | B1 | HepG2 (liver cancer) and Im9 | 
5 | B2 | MCF7 (breast cancer),; also recorded: HS913T (fibrosarcoma) | 
6 | B3 | HeLa (cervical cancer),; also recorded: Jurkat (leukemia); also recorded: RJ2.25 | 
7 | B4 | P388 (lymphoma) and HeLa | 
